Test: gradient 5% acetonitrile 3 min, to 50% in 2 min, to 85% in 15 min, held 3 min, 100 µL/min
Conditions: column: Zorbax Extend-C18 2.1 x 50 mm; eluents: water / acetonitrile, 0.1% formic acid
In short: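 Values are retention times taken from adduct peaks that software picked and an analyst inspected. The pure standards were run as mixtures of ~100 molecules on HPLC linked to a quadrupole time-of-flight mass spectrometer, in positive and negative ionization mode. A Zorbax Extend-C18 column (2.1 × 50 mm, 1.8 μm) was used at 100 μL/min with water and acetonitrile, each including 0.1% formic acid.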

| Compound | RP-LC retention time |
| --- | --- |
| CCc1ccc(NC(=O)Cn2c(=O)cc(-c3nc(C(C)C)no3)c3ccccc32)cc1 | 1100 s |
| CCc1cc(=O)n(CC(=O)Nc2ccc(OC)c(F)c2)c(N)n1 | 788 s |
| COCCc1noc([C@@H]2CN(Cc3ccc4[nH]ccc4c3)C[C@H]2CO)n1 | 592 s |
| CCN(CC)C(=O)c1ccc2c(c1)N(CC(=O)Nc1ccc(C(C)=O)cc1)C(=O)CO2 | 700 s |
| CCCN(C(C)=O)c1nc(-c2cccc(Br)c2)cs1 | 1260 s |
| CC(Oc1ccccc1Cl)C(=O)Nc1ccnn1Cc1cccs1 (centres undefined) | 913 s |
| CCOC(=O)C12CC1/C(=N\O)c1ccccc1O2 (centres undefined) | 773 s |
| COc1ccc(NC(=O)Cn2cc(C(=O)C3CC3)c3ccccc32)cc1 | 864 s |
| CCN1CCN(C(=O)Cn2c(=O)c3cnc(-c4ccc(Cl)cc4)nc3n(CC)c2=O)CC1 | 716 s |
| Cc1cc(-c2nnc(-c3ccco3)o2)c(C)n1CC(=O)NCc1cc(F)cc(F)c1 | 852 s |
| Cc1ccc(-c2cn3c(CC(=O)NCCC4=CCCCC4)csc3n2)cc1C | 942 s |
| CCCCN1CCN(C(=O)C2CCCN(c3cnc4nccnc4c3)C2)CC1 (centres undefined) | 569 s |
| Cn1c(=O)c2ccn(CC(=O)N3CCN(c4ccccc4F)CC3)c2n(C)c1=O | 851 s |
| Cc1ccc(OCc2nn3c(COc4ccc(F)cc4)nnc3s2)cc1C | 1100 s |
| COc1ccccc1NS(=O)(=O)c1ccc(-c2nnc(C3CCC3)o2)o1 | 904 s |
| CCOc1ccccc1-c1noc(Cn2c(=O)n(-c3cccc(OC)c3)c(=O)c3sccc32)n1 | 964 s |
| COC(=O)c1ccc(C(=O)Nc2ccc(CC(=O)NC3CC3)cc2)cc1 | 657 s |
| COc1ccc(-c2csc(NC(=O)c3sc(COc4ccc(Cl)c(C)c4)nc3C)n2)cc1 | 1320 s |
| CC(C)CCn1c(CN(C)C(=O)c2ccco2)nc2ccccc21 | 718 s |
| Cc1cccc(OCc2nnc(SCC(=O)Nc3nc(-c4ccccc4)cs3)o2)c1 | 1070 s |

| Compound | RP-LC retention time |
| --- | --- |
| CC(=O)N1CCCN(C2=NS(=O)(=O)C(c3ccc(C)c(C)c3)=C2C)CC1 | 630 s |
| Cc1ccc(-c2ccc(-n3nc(C)c(S(=O)(=O)N4CCOCC4)c3C)nn2)cc1 | 972 s |
| CCC(C(=O)NCCc1c[nH]c2ccc(C)cc12)n1c2ccccc2c2cnn(C)c(=O)c21 (centres undefined) | 957 s |
| O=S(=O)(c1ccc(F)c(Cl)c1)N1CC(F)(F)C[C@H]1CN1CCc2ccccc2C1 | 791 s |
| Cc1cccn2cc(-c3cccc(S(=O)(=O)N4CC(C)CC(C)C4)c3)nc12 (centres undefined) | 828 s |
| COc1cc(NC(=O)C2CCN(C(=O)C3Sc4ccccc4NC3=O)CC2)cc(OC)c1 (centres undefined) | 754 s |
| O=C(Cn1nc2n(c1=O)CCCC2)Nc1cccc(Br)c1 | 686 s |
| COc1ccc(-c2noc(C3CC(=O)N(c4ccc(C)c(Cl)c4)C3)n2)cc1 (centres undefined) | 1050 s |
| CCC(CC)C(=O)Nc1nc(-c2ccc3c(c2)N(C)C(=O)CO3)cs1 | 929 s |
| Cc1cc(C)cc(NC(=O)Cn2nc3c4cc(F)ccc4ncn3c2=O)c1 | 752 s |
| CC(C)n1nc(CNC(=O)c2cccs2)c2ccccc21 | 845 s |
| CN1CCCc2cc(C(=O)N3CCC4(CC3)OCCO4)sc21 | 796 s |
| Cc1nc2cc(N3CCC(C(=O)NCCC4=CCCCC4)CC3)cnc2nc1C | 767 s |
| COc1ccc2c(c1)C=C(C(=O)N(C)c1ccccc1)C=CO2 | 1030 s |
| CCC(CC)C(=O)N1C[C@H]2C[C@H](C1)[C@H]1CCCC(=O)N1C2 | 645 s |
| CCCCN1CCN(C(=O)c2ccc3c(c2)nc2n3CCN(C3CCCCC3)C2=O)CC1 | 618 s |
| O=c1n(Cc2ccccc2)nc2n1CCN(S(=O)(=O)c1cnc[nH]1)CC2 | 646 s |
| COc1ccc(-c2nnc3n2CCN(Cc2ccc(C)o2)C3)cc1 | 647 s |
| O=C(NCCCn1cccn1)C1CCN(c2nnc3ccc(Cl)cn23)CC1 | 618 s |
| COc1ccc(OCc2nnc3sc(-c4ccccn4)nn23)cc1 | 823 s |

| Compound | RP-LC retention time |
| --- | --- |
| CCOCCCNC(=O)c1cc2c(n(-c3ccc(C(F)(F)F)cc3)c1=O)CCCC2=O | 853 s |
| CCc1noc(NC(C)=O)c1-c1ccc(C)c(S(=O)(=O)N2CCN(c3ccccc3)CC2)c1 | 964 s |
| COc1cc(Cl)ccc1C(=O)N1CCN=C1N1CCN(c2ccccc2F)CC1 | 749 s |
| CO/N=C(\C(=O)N[C@@H]1C(=O)N2C(C(=O)OCOC(=O)C(C)(C)C)=C(/C=C\c3scnc3C)CS[C@H]12)c1csc(N)n1 | 792 s |
| CC(C)CCNC(=O)CN1C(=O)CC(c2cccs2)=Nc2ccccc21 | 888 s |
| Cc1ccc(-c2nnc(Cc3nc(-c4ccc(Br)cc4)no3)o2)cc1C | 1230 s |
| CCOc1ccc(C(C)NC(=O)c2c(C)sc3ccn(CC)c(=O)c23)cc1 (centres undefined) | 872 s |
| COC(=O)c1sc(NC(=O)COc2ccc(Cl)cc2)nc1C | 963 s |
| COCCCNC(=O)C1CCCN(S(=O)(=O)c2ccc(OC)c(OC)c2)C1 (centres undefined) | 699 s |
| CCc1cc(C2CCCN2C(=O)c2cnn3c(C(F)(F)F)cc(-c4ccco4)nc23)on1 (centres undefined) | 870 s |
| Cc1ccc(Nc2nccc(N(C)c3ccc4c(C)n(C)nc4c3)n2)cc1S(N)(=O)=O | 685 s |
| CCCn1ccc2sc(C)c(C(=O)NCC(C)C)c2c1=O | 800 s |
| CCC1CCCCN1C(=O)Cc1c(C)nn(-c2nc(-c3ccc(C)cc3)cs2)c1C (centres undefined) | 1380 s |
| CCNC(=O)c1cc(C)nc2ccc(C)cc12 | 568 s |
| CCCNC(=O)c1ccc(-c2csc(C)n2)cc1 | 754 s |
| Cc1ccc(-c2nc3c(C)cccn3c2Nc2ccccc2C)cc1 | 788 s |
| Cc1ncc(C(=O)NC2CC2)c(=O)n1CC(=O)Nc1cc(F)ccc1F | 705 s |
| Cc1ccc2c(Nc3ccc(C)c(C)c3)c(C(=O)N3CCCCC3C)cnc2n1 (centres undefined) | 672 s |
| CCc1nc2cc(-c3noc(/C=C/c4ccc(C)o4)n3)ccc2o1 | 1180 s |
| CC(Cc1ccco1)NC(=O)Cn1c(=O)c(=O)n(C)c2ncccc21 (centres undefined) | 688 s |

More lines, now with the values ahead:

| RP-LC retention time | Compound |
| --- | --- |
| 1240 s | CCc1cccc(NC(=O)Cn2nc(N3CCCC(C)C3)c3ccccc3c2=O)c1 (centres undefined) |
| 616 s | COc1cccc(CNC(=O)C2CCN(c3cc(N4CCOCC4)ncn3)CC2)c1 |
| 824 s | COc1ccc(CNC(=O)c2c(C)oc3ccn(C)c(=O)c23)cc1 |
| 727 s | COC(=O)c1c(C)[nH]c(C(=O)N2CCC(CC(=O)NCc3ccc(F)cc3)CC2)c1C |
| 804 s | O=C(NC1CC1)c1ccc(OCC2CCN(C(=O)c3ccc(F)cc3F)CC2)cc1 |
| 711 s | COc1ccccc1NC(=O)N1CCCC1c1nncn1-c1ccccc1 (centres undefined) |
| 767 s | O=C(c1ccoc1)N1CCN(C(=O)c2nnn3c2COC(c2ccccc2)C3)CC1 (centres undefined) |
| 683 s | O=C(c1cc(-c2ccccc2)n[nH]1)N1C[C@H]2CNC(=O)[C@]23CCCC[C@@H]13 |
| 669 s | O=C(NCc1ccc(F)cc1)N1CCCC(Cn2c(C3CC3)nc3cccnc32)C1 (centres undefined) |
| 623 s | O=C(NCCOc1cccc2cccnc12)c1cnn(-c2ccccc2)n1 |
| 565 s | O=C(CC1C(=O)NCCN1C(=O)CN1CCN(c2ccccn2)CC1)Nc1ccccc1 (centres undefined) |
| 903 s | Cc1ccccc1OCC(=O)N1CC2CN(S(=O)(=O)c3ccc(F)cc3)CC(C1)O2 |
| 885 s | Cc1cc(OCC(=O)NCc2cccs2)nc(-c2ccc(F)cc2)n1 |
| 952 s | COc1ccccc1-c1nc(-c2ccc(S(=O)(=O)N3CCC(C(=O)N4CCCC4)CC3)cc2)no1 |
| 798 s | COC(=O)c1ncn2c1C(=O)N(Cc1ccc(Cl)cc1)C(C)(C(=O)NC1CCCCC1)C2 (centres undefined) |
| 799 s | CCCn1cc(CCNC(=O)c2ccc(C)cc2C)c2cccnc21 |
| 840 s | CCn1ccc(C(=O)N2CCCC2c2cccc(F)c2)n1 (centres undefined) |
| 855 s | CC(C)OCCCNC(=O)c1cc2n(n1)CCCN(Cc1ccc(Cl)cc1)C2=O |
| 574 s | COc1ccccc1OCC(=O)NCCN1CCN(c2ccccc2OC)CC1 |
| 560 s | O=C(C1CCN(c2ccc3nncn3n2)CC1)N1CCN(c2ccccn2)CC1 |
| 735 s | CCC(NC(=O)C1CCCN(c2cnc3nccnc3c2)C1)c1ccc(OC)cc1 (centres undefined) |
| 609 s | c1ccc2c(-c3nc(-c4ccc5c(c4)ncn5CCN4CCCCC4)no3)n[nH]c2c1 |
| 663 s | O=C(NC1CC1)c1ccc(N2CCC(NCc3ccc(C(F)(F)F)cc3)C2)nc1 (centres undefined) |
| 838 s | COc1ccccc1CCC(=O)N1CCN(c2cc(-c3cccs3)[nH]n2)CC1 |
| 643 s | Nc1nc(N2CCCC2)ncc1C(=O)NCc1ccccc1F |
| 814 s | COc1ccc2[nH]cc(CCNC(=O)c3cc(-c4ccccn4)nc4ccccc34)c2c1 |
| 866 s | O=C(NCc1ccccc1)C1CCN(S(=O)(=O)c2cc(C(=O)N3CCCCCC3)cs2)CC1 |
| 645 s | CCCNC(=O)C1CCN(c2ccc(SCC(=O)NCc3ccccc3)nn2)CC1 |
| 771 s | COc1ccccc1NC(=O)CN1CCN(Cc2ccc(C)cc2)C(=O)C1=O |

Reference: the METLIN SMRT retention time set (Domingo-Almenara et al. 2019)
